Results as given in patent publication US10183944B2 (Asana Biosciences, LLC, priority 2011, dated 2019).
Counter-ions that a name gives are not always drawn. Like-named read-outs stand apart in the source and are kept apart here.

Legend:
[1] = target: Syk (356-635 amino acids) catalytic domain (Homo sapiens (Human), UniProt P43405); experiment: Inhibition of enzymatic Syk kinase activity (radiometric); format: biochemical
Procedure, shortened: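 Radiometric filter-binding format: 32P transfer from γ-32P-ATP onto pG4T, scintillation-counted after acid washes of P81 paper. Syk kinase domain (356-635), 0.035–7.5 ng per reaction, was exposed to compound for 30 minutes at room temperature before a 10-minute, 30° C. reaction with ATP (100 μM stock). Inhibition derived from counts with versus without compound.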

JAK2 = JAK2 (Homo sapiens (Human), UniProt O60674); experiment: Inhibition of enzymatic JAK2 kinase activity (TR-FRET); format: biochemical
Chain of JAK2 (O60674 808-1132): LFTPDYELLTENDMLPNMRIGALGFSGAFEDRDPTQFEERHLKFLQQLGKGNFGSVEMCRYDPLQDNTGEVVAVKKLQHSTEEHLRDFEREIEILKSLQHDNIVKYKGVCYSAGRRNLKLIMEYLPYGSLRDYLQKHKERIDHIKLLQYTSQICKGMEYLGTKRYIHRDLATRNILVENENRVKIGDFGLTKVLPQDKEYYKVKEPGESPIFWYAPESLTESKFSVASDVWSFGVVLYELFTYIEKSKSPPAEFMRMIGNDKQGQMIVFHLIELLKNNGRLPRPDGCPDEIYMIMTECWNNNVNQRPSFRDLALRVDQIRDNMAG
Procedure, shortened: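 TR-FRET read-out (Eu antibody donor, Ulight poly Glu-Tyr acceptor, 665/615 nm ratio) after a 60 min RT kinase reaction with ATP, begun following 30 min compound–enzyme preincubation. Stopped by EDTA; inhibition expressed as 100 minus % activity of positive control.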

RBL2H3 cells = experiment: Degranulation assay: β-hexosaminidase release during immune complex mediated degranulation; format: cell-based, rat
Procedure, shortened: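 Fluorometric β-NAG read-out (Ex 355, Em 460 nm; 30 min, RT) of supernatant after DNP-BSA stimulation (45–60 min) of anti-DNP IgE-sensitized RBL2H3 cells. Compounds (0.5% DMSO) added 15 min before antigen; degranulation expressed as % β-hexosaminidase release or inhibition.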

[2] = Rattus norvegicus, RBL-2H3, 1 μM, Assay Protocol B (96 well format), read-out: Degranulation % inhibition at 1 μM
[3] = Rattus norvegicus, RBL-2H3, Assay Protocol B (96 well format), read-out: Degranulation EC50

SMILES	IC50 ([1]; read-out: IC50 Syk) [µM]	IC50 (JAK2; read-out: IC50 JAK) [µM]	EC50 (RBL2H3 cells; [3]) [nM]	inhibition at 1 µM (RBL2H3 cells; [2]) [%]	other results
O=c1[nH]ncc2nc(N3CCCCCC3)nc(Nc3ccc(OC4CCNCC4)cc3)c12 [Example 292, 2-(azepan-1-yl)-4-((4-(piperidin-4-yloxy)phenyl)amino)pyrimido[4,5-d]pyridazin-5(6H)-one hydrochloride]	< 0.01	< 0.01	83	65	–
N#CCC1CCN(c2nc(Nc3ccc(N4CCNCC4)nc3)c3c(=O)[nH]ncc3n2)CC1 [Example 231, 2-(1-(5-oxo-4-((6-(piperazin-1-yl)pyridin-3-yl)amino)-5,6-dihydropyrimido[4,5-d]pyridazin-2-yl)piperidin-4-yl)acetonitrile]	< 0.05	< 0.1	367	0	–
N=Cc1nc(N2CCCCCC2)nc(Nc2ccc(N3CCCC(CC(=O)O)C3)cc2)c1C(N)=O (stereo not shown) [Example 232]	< 0.05	< 0.01	–	–	Degranulation % inhibition at 1 μM (RBL2H3 cells; 1 μM, Assay Protocol B (96 well format)): 0%; EC50 (RBL2H3 cells; Assay Protocol B (96 well format), read-out: Degranulation EC50): 619 nM
CC1CCN(c2nc(Nc3ccc(N4CCC5(CC4)CC5C(=O)O)cc3)c3c(=O)[nH]ncc3n2)CC1 (stereo not shown) [Example 155, 6-(4-((2-(4-methylpiperidin-1-yl)-5-oxo-5,6-dihydropyrimido[4,5-d]pyridazin-4-yl)amino)phenyl)-6-azaspiro[2.5]octane-1-carboxylic acid]	< 0.05	< 0.05	27	–	–
CC1(O)CCN(CCOc2ccc(Nc3nc(N4CCC(CC#N)CC4)nc4cn[nH]c(=O)c34)cc2)CC1 [Example 185, 2-(1-(4-((4-(2-(4-hydroxy-4-methylpiperidin-1-yl)ethoxy)phenyl)amino)-5-oxo-5,6-dihydropyrimido[4,5-d]pyridazin-2-yl)piperidin-4-yl)acetonitrile]	< 0.01	< 0.05	29	83	–
N#CCC1CCN(c2nc(Nc3ccc(N4CCCC(CO)C4)cc3)c3c(=O)[nH]ncc3n2)CC1 (stereo not shown) [Example 284, 2-(1-(4-((4-(3-(hydroxymethyl)piperidin-1-yl)phenyl)amino)-5-oxo-5,6-dihydropyrimido[4,5-d]pyridazin-2-yl)piperidin-4-yl)acetonitrile]	< 0.01	< 0.01	21	92	–
N#CCC1CCN(c2nc(Nc3ccc(OCCN4CCC(CO)CC4)cc3)c3c(=O)[nH]ncc3n2)CC1 [Example 218, 2-(1-(4-((4-(2-(4-(hydroxymethyl)piperidin-1-yl)ethoxy)phenyl)amino)-5-oxo-5,6-dihydropyrimido[4,5-d]pyridazin-2-yl)piperidin-4-yl) acetonitrile]	< 0.05	< 0.05	123	33	–
N#CCC1CCN(c2nc(Nc3ccc(N4CCN(CCCO)CC4)cc3)c3c(=O)[nH]ncc3n2)CC1 [Example 261, 2-(1-(4-((4-(4-(3-hydroxypropyl)piperazin-1-yl)phenyl)amino)-5-oxo-5,6-dihydropyrimido[4,5-d]pyridazin-2-yl)piperidin-4-yl)acetonitrile]	< 0.01	< 0.05	39	87	–
CCN1CCN(c2ccc(Nc3nc(N4CCOCC4)nc4cn[nH]c(=O)c34)cc2)CC1 [Example 26, 4-(4-(4-ethylpiperazin-1-yl)phenylamino)-2-morpholinopyrimido[4,5-d]pyridazin-5(6H)-one]	< 0.01	< 0.1	–	67	–
O=c1[nH]ncc2nc(N3CCCCC3)nc(Nc3ccc(OCCN4CCC(O)CC4)cc3)c12 [Example 183, 4-((4-(2-(4-hydroxypiperidin-1-yl)ethoxy)phenyl)amino)-2-(piperidin-1-yl)pyrimido[4,5-d]pyridazin-5(6H)-one]	< 0.01	< 0.05	83	41	–
O=C(OCOP(=O)(O)O)C1CC12CCN(c1ccc(Nc3nc(N4CCCCCC4)nc4cn[nH]c(=O)c34)cc1)CC2 (stereo not shown) [Example 219, (phosphonooxy)methyl 6-(4-((2-(azepan-1-yl)-5-oxo-5,6-dihydropyrimido[4,5-d]pyridazin-4-yl)amino)phenyl)-6-azaspiro[2.5]octane-1-carboxylate]	–	–	–	–	IC50 [1]: < 0.01 µM; IC50 (JAK2): < 0.01 µM; inhibition at 1 µM (RBL2H3 cells; Rattus norvegicus, RBL-2H3, read-out: Degranulation % inhibition at 1 μM): 45%; EC50 (RBL2H3 cells; Rattus norvegicus, RBL-2H3, read-out: Degranulation EC50 (nM)): 96 nM
CCN1CCN(c2ccc(Nc3nc(N4CCC(CC#N)CC4)nc4cn[nH]c(=O)c34)cc2)CC1=O [Example 178, 2-(1-(4-((4-(4-ethyl-3-oxopiperazin-1-yl)phenyl)amino)-5-oxo-5,6-dihydropyrimido[4,5-d]pyridazin-2-yl)piperidin-4-yl)acetonitrile]	< 0.01	< 0.01	39	73	–

Continued, in another order:

IC50 ([1]; read-out: IC50 Syk) [µM]	IC50 (JAK2; read-out: IC50 JAK) [µM]	EC50 (RBL2H3 cells; [3]) [nM]	SMILES	inhibition at 1 µM (RBL2H3 cells; [2]) [%]	other results
< 0.01	< 0.01	15	O=c1[nH]ncc2nc(N3CCCCCC3)nc(Nc3ccc(N(CCO)CCO)cc3)c12 [Example 306, 2-(azepan-1-yl)-4-((4-(bis(2-hydroxyethyl)amino)phenyl)amino) pyrimido[4,5-d]pyridazin-5(6H)-one]	100	–
< 0.05	< 0.05	593	O=C(O)C1CCN(CCOc2ccc(Nc3nc(N4CCCCCC4)nc4cn[nH]c(=O)c34)cc2)CC1 [Example 98, 1-(2-(4-((2-(azepan-1-yl)-5-oxo-5,6-dihydropyrimido[4,5-d]pyridazin-4-yl)amino)phenoxy)ethyl)piperidine-4-carboxylic acid]	62	–
< 0.05	< 0.1	–	O=c1[nH]ncc2nc(-c3ccccc3)nc(Nc3ccc(N(CCO)CCO)cc3)c12 [Example 10, 4-(4-(bis(2-hydroxyethyl)amino)phenylamino)-2-phenylpyrimido[4,5-d]pyridazin-5(6H)-one]	–	inhibition at 1 µM (RBL2H3 cells; Rattus norvegicus, RBL-2H3, 1 μM, Assay Protocol A (24 well format), read-out: Degranulation % inhibition at 1 μM): 100%
< 0.05	< 0.05	–	O=C(O)C1CC12CCN(c1ccc(Nc3nc(-c4ccsc4)nc4cn[nH]c(=O)c34)cc1)CC2 (stereo not shown) [Example 39, 6-(4-(5-oxo-2-(thiophen-3-yl)-5,6-dihydropyrimido[4,5-d]pyridazin-4-ylamino)phenyl)-6-azaspiro[2.5]octane-1-carboxylic acid]	100	–
> 0.1	> 0.1	1020	N#CCC1CCN(c2nc(Nc3ccc(N4CCC(CC(=O)O)CC4)cc3)c3c(=O)[nH]ncc3n2)CC1 [Example 71, 2-(1-(4-((2-(4-(cyanomethyl)piperidin-1-yl)-5-oxo-5,6-dihydropyrimido[4,5-d]pyridazin-4-yl)amino)phenyl)piperidin-4-yl)acetic acid]	65	–
< 0.01	< 0.05	31	O=c1[nH]ncc2nc(N3CCCCCC3)nc(Nc3ccc4[nH]nnc4c3)c12 [Example 339, 4-((1H-benzo[d][1,2,3]triazol-5-yl)amino)-2-(azepan-1-yl)pyrimido[4,5-d]pyridazin-5(6H)-one]	83	–
< 0.01	< 0.01	33	CC1(O)CCN(CCOc2ccc(Nc3nc(N4CCCCCC4)nc4cn[nH]c(=O)c34)cc2)CC1 [Example 184, 2-(azepan-1-yl)-4-((4-(2-(4-hydroxy-4-methylpiperidin-1-yl)ethoxy)phenyl)amino)pyrimido[4,5-d]pyridazin-5(6H)-one]	65	–
< 0.01	< 0.01	1	O=c1[nH]ncc2nc(N3CCCCCC3)nc(Nc3ccc(CN4CCNCC4)cc3)c12 [Example 52, 2-(azepan-1-yl)-4-((4-(piperazin-1-ylmethyl)phenyl)amino)pyrimido[4,5-d]pyridazin-5(6H)-one hydrochloride]	100	–
< 0.05	< 0.01	110	O=C(c1ccc(Nc2nc(N3CCCCCC3)nc3cn[nH]c(=O)c23)cc1)N1CCNCC1 [Example 104, 2-(azepan-1-yl)-4-((4-(piperazine-1-carbonyl)phenyl)amino)pyrimido[4,5-d]pyridazin-5(6H)-one hydrochloride]	100	–
< 0.01	< 0.01	19	CN1CCN(c2ccc(Nc3nc(N4CCC(CC#N)CC4)nc4cn[nH]c(=O)c34)cc2)CC1 [Example 248, 2-(1-(4-((4-(4-methylpiperazin-1-yl)phenyl)amino)-5-oxo-5,6-dihydropyrimido[4,5-d]pyridazin-2-yl)piperidin-4-yl)acetonitrile]	99	–
< 0.01	< 0.05	10	CC(C)(CO)N1CCN(c2ccc(Nc3nc(N4CCC(CC#N)CC4)nc4cn[nH]c(=O)c34)cc2)CC1 [Example 266, 2-(1-(4-((4-(4-(1-hydroxy-2-methylpropan-2-yl)piperazin-1-yl)phenyl)amino)-5-oxo-5,6-dihydropyrimido[4,5-d]pyridazin-2-yl)piperidin-4-yl) acetonitrile]	99	–
